Data set [1] in a line: refractive index (Na D-line) (dimensionless). Conditions: 298.15 K; 101.33 kPa; Liquid; Standard Abbe refractometry.
The conditions of data set [2]: Liquid, Ebulliometric method (Recirculating still).

Data on six molecules can be found in the NIST ThermoML archive (doi:10.1016/j.fluid.2009.11.004).

The term refractive index denotes a measure of how strongly the sample bends light. One may read the vapor or sublimation pressure as the pressure of vapour in equilibrium with the condensed phase.

± gives the expanded uncertainty stated by the source.

As for `Cc1ccccc1C` [1,2-dimethylbenzene], the refractive index in data set [1] was found to be 1.5028 ± 0.0007.
Take `CC1CCCC1` [methylcyclopentane]: the “vapor or sublimation pressure” value in data set [2] (300.4 K) is given as 20.25 ± 0.4 kPa; in data set [2] (310.16 K), 30.18 ± 0.41 kPa; in data set [2] (317.69 K), 40.24 ± 0.45 kPa; in data set [2] (323.75 K) it was 50.16 ± 0.49 kPa; in data set [2] (328.97 K), 60.22 ± 0.53 kPa; in data set [2] (333.37 K), 69.94 ± 0.58 kPa. The “vapor or sublimation pressure” value in data set [2] (337.5 K) was 80.18 ± 0.62 kPa; in data set [2] (341.25 K), 90.53 ± 0.68 kPa; in data set [2] (345.1 K) it was 102.31 ± 0.7 kPa. Also, the refractive index in data set [1] worked out at 1.4067 ± 0.0007.
For the molecule `Cc1ccsc1` [3-methylthiophene], the refractive index in data set [1] is reported as 1.5172 ± 0.0007.
In the case of `CC1CCCCC1` [methylcyclohexane], the “vapor or sublimation pressure” value in data set [2] (325.39 K) is 20.25 ± 0.39 kPa; in data set [2] (336.27 K) it was 30.47 ± 0.4 kPa; in data set [2] (344.1 K) it was 40.07 ± 0.43 kPa; in data set [2] (350.71 K), 49.96 ± 0.47 kPa; in data set [2] (356.44 K) it was 60.05 ± 0.51 kPa; in data set [2] (361.45 K), 70.17 ± 0.55 kPa. The “vapor or sublimation pressure” value in data set [2] (365.75 K) worked out at 79.96 ± 0.59 kPa; in data set [2] (369.98 K) it was 90.64 ± 0.63 kPa; in data set [2] (373.9 K), 101.6 ± 0.65 kPa.
Regarding `CCCCCC` [hexane], in data set [1], the refractive index was 1.3724 ± 0.0007.
As for `CCCC(C)C` [2-methylpentane], the “vapor or sublimation pressure” value in data set [2] (290.34 K) came out at 20.3 ± 0.4 kPa; in data set [2] (299.7 K) it was 30.13 ± 0.42 kPa; in data set [2] (307.12 K), 40.39 ± 0.46 kPa; in data set [2] (312.92 K), 50.23 ± 0.5 kPa; in data set [2] (317.93 K), 60.24 ± 0.54 kPa; in data set [2] (322.26 K), 70.13 ± 0.59 kPa. In addition, the “vapor or sublimation pressure” value in data set [2] (326.15 K) is listed as 80.11 ± 0.64 kPa; in data set [2] (329.74 K), 90.32 ± 0.69 kPa; in data set [2] (333.37 K), 101.76 ± 0.72 kPa. Besides, in data set [1], the refractive index is given as 1.3685 ± 0.0007.
